Measured values: article PMC5314759 (2016)

Key:
[1] = system: poly[d(G-C)2] (DNA, polymer) GC; experiment: ethidium bromide fluorescence displacement; conditions: apparent; ethidium bromide displaced; Kapp = Kb × 12.6/C50; over 5 h
[2] = system: poly[d(G-C)2] (DNA, polymer) GC; experiment: UV thermal melting; conditions: compound concentration not given here; no significant stabilization
[3] = system: poly[d(A-T)2] (DNA, polymer) AT; experiment: UV thermal melting; conditions: compound concentration not given here; no significant stabilization
[4] = system: poly[d(A-T)2] (DNA, polymer) AT; experiment: ethidium bromide fluorescence displacement; conditions: apparent; ethidium bromide displaced; Kapp = Kb × 12.6/C50; over 5 h

Kapp [1]	ΔTM [2]	ΔTM [3]	Kapp [4]	SMILES
3.5 × 10^7 M(bp)^-1	0.36 ± 0.17 °C	−0.17 ± 0.25 °C	3.63 × 10^6 M(bp)^-1	COC1=CC=C2[C@H]3Cc4ccc(OCc5c(C)c(COc6ccc7c8c6O[C@H]6C(OC)=CC=C9[C@@H](C7)N(C)CC[C@]986)c(C)c(COc6ccc7c8c6O[C@H]6C(OC)=CC=C9[C@@H](C7)N(C)CC[C@]986)c5C)c5c4[C@@]2(CCN3C)[C@H]1O5
1.15 × 10^7 M(bp)^-1	1.72 ± 0.61 °C	0.73 ± 0.18 °C	9.1 × 10^6 M(bp)^-1	CO[C@H]1C=C[C@H]2[C@H]3Cc4ccc(OCc5c(C)c(COc6ccc7c8c6O[C@H]6[C@@H](OC)C=C[C@H]9[C@@H](C7)N(C)CC[C@@]896)c(C)c(COc6ccc7c8c6O[C@H]6[C@@H](OC)C=C[C@H]9[C@@H](C7)N(C)CC[C@@]896)c5C)c5c4[C@@]2(CCN3C)[C@H]1O5
2.69 × 10^5 M(bp)^-1	2.63 ± 0.58 °C	0.38 ± 0.71 °C	3.03 × 10^5 M(bp)^-1	Cc1c(COc2ccc3c4c2O[C@H]2[C@@H](O)C=C[C@H]5[C@@H](C3)N(C)CC[C@@]452)c(C)c(COc2ccc3c4c2O[C@H]2[C@@H](O)C=C[C@H]5[C@@H](C3)N(C)CC[C@@]452)c(C)c1COc1ccc2c3c1O[C@H]1[C@@H](O)C=C[C@H]4[C@@H](C2)N(C)CC[C@@]341
